Measurements from patent publication US20040067960A1, “Heterocyclic substituted piperazines for the treatment of schizophrenia” (priority 2002, published 2004).
Where a name gives a salt, the structure may show the parent alone.

How the values were obtained:
[1] = system: d-amphetamine-stimulated locomotor activity in rats; test: d-Amphetamine-stimulated locomotor activity (LMA); assay type: in vivo, Sprague Dawley rat; conditions: rat, oral, 30 min before d-amphetamine 1 mg/kg s.c., 2 h recording
Experimental: d-Amphetamine-Stimulated Locomotor Activity (LMA):
The LMA model is used to test novel compounds for efficacy as orally active dopaminergic (DA) antagonists. In this model, administration of d-amphetamine to rats induces a stimulation of locomotor activity, measured as centimeters traveled over a two-hour period. Compounds are administered prior to d-amphetamine, and their efficacy in decreasing the stimulated locomotion is assessed as a measure of DA antagonism.
Sprague Dawley (S-D) male rats were obtained from Harlan Laboratories, Indianapolis Ind. All rats weighed 130-150 g at the time of arrival and were housed in groups of 5 for at least 1 week prior to testing. Food and water were available ad lib. At the time of testing, rats weighed 150-200 g. Tests occurred between 9:00 AM and 4:00 PM. All rats were food deprived overnight prior to testing.
Locomotor activity testing in rats was performed using 16-Beam Digiscan Animal Activity Monitors (Accuscan Electronics, Columbus, Ohio). Each test chamber consisted of a Plexiglas box measuring 16×16 inches, placed within the monitor frame. The entire monitor/chamber assembly is further housed inside a stainless steel sound-attenuating chamber (SAC). The SAC is lighted, ventilated, and isolates the rat from room environment. Rats were tested one per chamber. Data is collected using Versamax software.
Each test consists of four treatment groups, vehicle and three doses of the test compound. Each treatment group is comprised of 8 animals. The test is performed in two sessions, with 4 groups of 4 rats in each treatment group tested in each session, and data from the two sessions, typically morning and afternoon of the same day, combined to give a total of 8 rats per group.
Rats were removed from the housing room and transported to the test room in transfer cages. […]
Data were collected as centimeters traveled during the 2 hour test period. The effect of the test compound was expressed as a percentage decrease (or increase) in stimulated locomotor activity relative to the activity observed in the vehicle-treated group. […]

[2] = target: T1, serotonin 2A (5HT2A) receptor (Homo sapiens, UniProt P28223); test: Serotonin 2A binding ([3H]ketanserin, Swiss-h5HT2A cell membranes); conditions: [3H]ketanserin 1.0 nM
T1 construct: expressed in transfected cells; host or cells: Swiss cells (Swiss-h5HT2A)
Source text: (§1) The ability of the compounds of this invention to bind to the dopamine D2 and serotonin 2A (5HT2A) receptors can be determined using conventional radioligand receptor binding assays. All receptors can be heterologously expressed in cell lines and experiments conducted in membrane preparations from the cell lines using procedures outlined below. IC50 concentrations can be determined by nonlinear regression of concentration-dependent reduction in specific binding. The Cheng-Prussoff equation can be used to convert the IC50 to Ki concentrations.
[^3H] Ketanserin binding to Swiss-h5HT2A cell membranes can be carried out in 250 μl of 50 mM Tris-HCl buffer pH 7.4. Duplicate samples containing (in order of addition) test compounds, 1.0 nM [^3H]ketanserin, and approximately 75 μg protein are incubated for 120 minutes at room temperature. Bound radioligand is separated by rapid filtration under reduced pressure through Whatman GF/B glass fiber filters previously treated with 0.3% polyethyleneimine. Radioactivity retained on the filter is determined by liquid scintillation spectrophotometry.
The title compounds of Examples 1-6 were tested using the above assay, in which specific binding determined in the presence of 1 mM ketanserin was 90%.

dopamine D2 receptor = target: T2, dopamine D2 receptor (Homo sapiens, UniProt P14416); test: Dopamine D2 receptor binding ([3H]spiperone, CHO-hD2L membranes); conditions: [3H]spiperone 0.4 nM
T2 construct: expressed in transfected cells; host or cells: CHO cells (CHO-hD2L)
Source text: as §1
Dopamine D2 Receptor Binding:
[^3H]Spiperone binding to a membrane preparation from CHO-hD2L cells is carried out in 250 μl of 50 mM Tris-HCl buffer containing 100 mM NaCl, 1 mM MgCl2 and 1% DMSO at pH 7.4. Duplicate samples containing (in order of addition) the test compounds, 0.4 nM [^3H]spiperone and approximately 12 μg protein are incubated for 120 minutes at room temperature. Bound radioligand is separated by rapid filtration under reduced pressure through Whatman GF/B glass fiber filters previously treated with 0.3% polyethyleneimine. Radioactivity retained on the filter is determined by liquid scintillation spectrophotometry.
The title compounds of Examples 1-6 were tested using the above assay, in which specific binding determined in the presence of 1 mM haloperidol was 95%.

T1 sequence (P28223 whole entry): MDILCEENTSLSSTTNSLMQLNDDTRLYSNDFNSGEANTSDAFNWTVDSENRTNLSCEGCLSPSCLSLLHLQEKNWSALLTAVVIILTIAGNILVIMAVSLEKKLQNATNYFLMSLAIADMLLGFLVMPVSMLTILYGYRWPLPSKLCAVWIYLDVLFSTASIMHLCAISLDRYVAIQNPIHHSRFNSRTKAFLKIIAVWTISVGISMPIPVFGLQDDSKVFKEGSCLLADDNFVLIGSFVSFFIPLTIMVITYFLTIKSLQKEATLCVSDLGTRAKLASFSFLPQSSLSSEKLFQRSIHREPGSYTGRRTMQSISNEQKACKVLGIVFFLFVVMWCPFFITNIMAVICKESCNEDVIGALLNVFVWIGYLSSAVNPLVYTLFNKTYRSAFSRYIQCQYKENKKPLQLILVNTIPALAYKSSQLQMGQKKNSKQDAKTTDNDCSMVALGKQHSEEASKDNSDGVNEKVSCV
T2 sequence (P14416 whole entry): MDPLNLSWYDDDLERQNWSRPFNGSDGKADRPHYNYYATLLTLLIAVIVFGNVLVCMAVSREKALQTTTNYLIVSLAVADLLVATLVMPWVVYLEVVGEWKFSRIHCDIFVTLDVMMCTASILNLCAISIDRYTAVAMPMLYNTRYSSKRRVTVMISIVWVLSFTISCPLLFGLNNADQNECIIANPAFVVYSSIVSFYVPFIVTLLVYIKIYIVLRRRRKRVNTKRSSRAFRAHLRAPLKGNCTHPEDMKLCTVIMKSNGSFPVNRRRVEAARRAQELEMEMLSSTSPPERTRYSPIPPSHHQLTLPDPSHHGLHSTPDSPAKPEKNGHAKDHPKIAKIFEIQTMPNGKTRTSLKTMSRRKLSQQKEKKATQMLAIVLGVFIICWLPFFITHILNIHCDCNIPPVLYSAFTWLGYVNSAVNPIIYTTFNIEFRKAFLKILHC

SMILES	melting point	further results
Cc1ccc(CCN2CCN(c3noc4ccccc34)CC2)c2c1C(C)(C)CCN2 [Example 25, 8-[2-(4-BENZO[D]ISOXAZOL-3-YL-PIPERAZIN-1-YL)-ETHYL]-4,4,5-TRIMETHYL-1,2,3,4-TETRAHYDRO-QUINOLINE]	135 °C	–
CC(=O)N1CCC(C)(C)c2cc(F)cc(CCN3CCN(c4nsc5ccc(F)cc45)CC3)c21 (as salt: HCl)	128 °C	–
Cc1ccc(CCN2CCN(c3noc4ccccc34)CC2)c2c1C(C)(C)CC(=O)N2 [Example 24, 8-[2-(4-BENZO[D]ISOXAZOL-3-YL-PIPERAZIN-1-YL)-ETHYL]-4,4,5-TRIMETHYL-3,4-DIHYDRO-1H-QUINOLIN-2-ONE]	170 °C	–
Cc1cc(=O)[nH]c2c(CCN3CCN(c4nsc5ccccc45)CC3)cccc12 [Example 29, 8-[2-(4-BENZO[D]ISOTHIAZOL-3-YL-PIPERAZIN-1-YL)-ETHYL]-4-METHYL-1H-QUINOLIN-2-ONE]	–	activity in reducing d-amphetamine-stimulated locomotor activity (significant decrease vs vehicle) [1]: active
CC1(C)CC(=O)Nc2c(CCN3CCN(c4nsc5ccccc45)CC3)cccc21 [Example 1, 8-[2-(4-1,2-BENZISOTHIAZOL-3-YL-PIPERAZIN-1-YL)-ETHYL]-4,4-DIMETHYL-3,4-DIHYDRO-1H-QUINOLIN-2-ONE]	–	activity in reducing d-amphetamine-stimulated locomotor activity (significant decrease vs vehicle) [1]: active
CC1(C)CC(=O)Nc2c(CCN3CCN(c4n[s+]([O-])c5ccccc45)CC3)cc(F)cc21 (stereo not drawn) [Example 14, 6-Fluoro-4,4-dimethyl-8-{2-[4-(1−oxo-1H-1λ^4-benzo[d]isothiazol-3-yl)-piperazin-1-yl]-ethyl}-3,4-dihydro-1H-quinolin-2-one]	235 °C	–
CC(=O)N1CCC(C)(C)c2cc(F)cc(CCN3CCN(c4noc5ccccc45)CC3)c21 (as salt: HCl) [Example 28, 1-{8-[2-(4-benzo[d]isoxazol-3-yl-piperazin-1-yl)-ethyl]-6-fluoro-4,4-dimethyl-3,4-dihydro-2H-quinolin-1-yl}-ethanone]	112 °C	–
CC(=O)N1CCC(C)(C)c2c(C)ccc(CCN3CCN(c4nsc5ccccc45)CC3)c21 (as salt: HCl) [Example 21, 1-{8-[2-(4-BENZO[D]ISOTHIAZOL-3-YL-PIPERAZIN-1-YL)-ETHYL]-4,4,5-TRIMETHYL-3,4-DIHYDRO-2H-QUINOLIN-1-YL}-ETHANONE]	132 °C	–
CN1C(=O)CC(C)(C)c2cccc(CCN3CCN(c4nsc5ccccc45)CC3)c21 [Example 2, 8-[2-(4-1,2-BENZISOTHIAZOL-3-YL-PIPERAZIN-1-YL)-ETHYL]-1,4,4-TRIMETHYL-3,4-DIHYDRO-1H-QUINOLIN-2-ONE]	261 °C	Ki [2]: 0.18 nM; Ki (dopamine D2 receptor): 81.3 nM
CC1(C)CC(=O)Nc2c(CCN3CCN(c4nsc5ccccc45)CC3)cc(F)cc21 [Example 3, 8-[2-(4-1,2-BENZISOTHIAZOL-3-YL-PIPERAZIN-1-YL)-ETHYL]-6-FLUORO-4,4-DIMETHYL-3,4-DIHYDRO-1H-QUINOLIN-2-ONE]	–	activity in reducing d-amphetamine-stimulated locomotor activity (significant decrease vs vehicle) [1]: active
CC1(C)Cc2cccc(CCN3CCN(c4nsc5ccccc45)CC3)c2NC1=O [Example 5, 8-[2-(4-1,2-BENZISOTHIAZOL-3-YL-PIPERAZIN-1-YL)-ETHYL]-3,3-DIMETHYL-3,4-DIHYDRO-1H-QUINOLIN-2-ONE]	95 °C	Ki [2]: 2.07 nM; Ki (dopamine D2 receptor): 74.9 nM
O=C1CC(c2ccccc2)c2cccc(CCN3CCN(c4nsc5ccccc45)CC3)c2N1 (stereo not drawn) [Example 6, 8-[2-(4-1,2-BENZISOTHIAZOL-3-YL-PIPERAZIN-1-YL)-ETHYL]-4-PHENYL-3,4-DIHYDRO-1H-QUINOLIN-2-ONE]	227 °C	Ki [2]: 0.04 nM; Ki (dopamine D2 receptor): 13.8 nM
CC(=O)N1CCC(C)(C)c2c(C)ccc(CCN3CCN(c4noc5ccccc45)CC3)c21 (as salt: HCl) [Example 26, 1-{8-[2-(4-BENZO[D]ISOXAZOL-3-YL-PIPERAZIN-1-YL)-ETHYL]-4,4,5-TRIMETHYL-3,4-DIHYDRO-2H-QUINOLIN-1-YL}-ETHANONE]	230 °C	–

More lines, main results first:

melting point	SMILES	further results
298 °C	CC1(C)CC(=O)Nc2c(CCN3CCN(c4nsc5ccccc45)CC3)cc(F)cc21 (as salt: hydrochloride) [Example 3, 8-[2-(4-1,2-BENZISOTHIAZOL-3-YL-PIPERAZIN-1-YL)-ETHYL]-6-FLUORO-4,4-DIMETHYL-3,4-DIHYDRO-1H-QUINOLIN-2-ONE]	–
191 °C	CC1(C)CC(=O)Nc2c(CCN3CCN(c4nsc5ccc(F)cc45)CC3)cc(F)cc21 [Example 16, 6-FLUORO-8-{2-[4-(5-FLUORO-BENZO[D]ISOTHIAZOL-3-YL)-PIPERAZIN-1-YL]-ETHYL}-4,4-DIMETHYL-3,4-DIHYDRO-1H-QUINOLIN-2-ONE]	–
129 °C	Cc1ccc(CCN2CCN(c3nsc4ccccc34)CC2)c2c1C(C)(C)CC(=O)N2 [Example 20, 8-[2-(4-BENZO[D]ISOTHIAZOL-3-YL-PIPERAZIN-1-YL)-ETHYL]-4,4,5-TRIMETHYL-3,4-DIHYDRO-1H-QUINOLIN-2-ONE]	–
284 °C	CC1(C)CC(=O)Nc2c(CCN3CCN(c4nsc5ccccc45)CC3)cccc21 (as salt: hydrochloride) [Example 1, 8-[2-(4-1,2-BENZISOTHIAZOL-3-YL-PIPERAZIN-1-YL)-ETHYL]-4,4-DIMETHYL-3,4-DIHYDRO-1H-QUINOLIN-2-ONE]	–
166 °C	CC1(C)CC(=O)Nc2c(CCCN3CCN(c4nsc5ccccc45)CC3)cccc21 [Example 18, 8-[3-(4-BENZO[D]ISOTHIAZOL-3-YL-PIPERAZIN-1-YL)-PROPYL]-4,4-DIMETHYL-3,4-DIHYDRO-1H-QUINOLIN-2-ONE]	–
251 °C	Cl.O=C1CCc2cccc(CCN3CCN(c4nsc5ccccc45)CC3)c2N1	–
109 °C	CC(=O)N1CCC(C)(C)c2cccc(CCCN3CCN(c4nsc5ccccc45)CC3)c21 (as salt: HCl) [Example 19, 1-{8-[3-(4-BENZO[D]ISOTHIAZOL-3-YL-PIPERAZIN-1-YL)-PROPYL]-4,4-DIMETHYL-3,4-DIHYDRO-2H-QUINOLIN-1-YL}-ETHANONE]	–
230 °C	CC1(C)CC(=O)Nc2c(CCN3CCN(c4noc5ccccc45)CC3)cc(F)cc21 [Example 27, 8-[2-(4-BENZO[D]ISOXAZOL-3-YL-PIPERAZIN-1-YL)-ETHYL]-6-FLUORO-4,4-DIMETHYL-3,4-DIHYDRO-1H-QUINOLIN-2-ONE]	–
